# According to US6365166B2, “Gel formulations for topical drug delivery” (priority 1996, dated 2002):
# Like-named read-outs stand apart in the source and are kept apart here.
# Experiments:
# [1] = Solubility of the drug in gel formulations of the invention; format: physicochemical
# [2] = tested on: interferon and tumor necrosis factor; conditions: mice, oral administration; cited from earlier work
# [3] = tested on: interferon and tumor necrosis factor; conditions: rats, oral administration; cited from earlier work
# [4] = tested on: human peripheral blood mononuclear cells; conditions: cultures of human peripheral blood mononuclear cells; cited from earlier work
# [5] = tested on: herpes simplex virus; conditions: subcutaneously, dermally or intravaginally 24 hours before infection; cited from earlier work
structure (smiles),measurement,setting,value
"CCOCc1nc2c(N)nc3ccccc3c2n1CC(C)(C)O [4-amino-2-ethoxymethyl-α,α-dimethyl-1H-imidazo[4,5-c]quinoline-1-ethanol]",solubility in formulations of the invention,[1],sufficiently soluble
same,solubility in formulations of the invention,"[1]; listed as 4-Amino-2-ethoxymethyl-α,α-dimethyl-1H-imidazo[4,5-c]quinoline-1-ethanol",substantial solubility
same,induction of interferon and tumor necrosis factor,[2],induce interferon and tumor necrosis factor
same,induction of interferon and tumor necrosis factor,[3],induce interferon and tumor necrosis factor
same,cytokine induction,[4],"induce interferon-α, tumor necrosis factor, interleukin-1α, interleukin-1β, interleukin-6 and interleukin-8"
same,antiviral activity,[5],antiviral activity
